Results published in patent publication US20100138935A1, “Detection of cellular stress” (priority 2004, published 2010).

Tests used:
Format in all cases: in vivo, mouse
[1] = test system: HO-1-LacZ (HOZ) transgene; assay: LacZ transgene expression in HO-1-LacZ (HOZ) reporter mice
Experimental: Each test compound was dissolved in the appropriate vehicle solution and administered by intraperitoneal injection (i.p.) at a dose volume of 10 ml/kg. Wherever possible, both naive (untreated) and vehicle-treated controls were used. If a test item whose toxicity in the mouse is poorly characterised was to be used, a dose-ranging experiment was conducted prior to the main experiment. The test item was administered to a single mouse which was monitored for any adverse effects 6-8 hours and 24 hours later. If the single dose ranging mouse tolerated the treatment, the remaining mice were administered the test item according to the protocol.
Two slices of tissue (˜2 mm thickness) were removed for histochemical analysis of LacZ expression according to methods described below.
Tissues were washed with PBS and prefixed in 0.2% glutaraldehyde in PBS containing 0.1M MgCl2 and 5 mM EDTA, pH 7.3, for 4 hours at 4° C. on a shaker. After fixation, the tissues were transferred to 20% Sucrose solution and dehydrated overnight at 4° C. The next day they were embedded in cryo-M-bed medium on cork discs and lowered slowly into liquid nitrogen then transferred to −80° C. until sections were required.
Cryostat sample and chamber temperatures were set to −30° C. The sample to be sectioned was placed in the cryostat one hour prior to sectioning to allow equilibration at the appropriate temperature. Frozen sections (10 μm) were cut and placed on aminopropyltriethoxysilane (APES) coated slides.
Prior to staining, sections were incubated in 0.2% glutaraldehyde (as above) for 10 minutes at room temperature then washed twice (5 min each) in PBS containing 2 mM MgCl2, 0.01% sodium deoxycholate and 0.02% % Nonidet-P40. Sections were then […] the same wash solution containing 1 mg/ml X-gal, 5 mM potassium ferrocyanide and 5 mM potassium ferricyanide overnight at 37° C. then washed twice in PBS for 5 min, allowed to air dry and mounted in aqueous mounting medium (Hydromount). Slides were evaluated and photographed. • Frozen Method 2
Tissues were excised, immediately placed into chilled 4% paraformaldehyde containing 0.1% glutaraldehyde and 2 mM MgCl2 in PBS, and fixed in the above solution for 3 hours at 2-8° C. with gentle shaking. Fixed tissues were washed at 2-8° C. for 3×5 minutes with chilled PBS containing 2 mM MgCl2 and dehydrated overnight at 2-8° C. in PBS containing 2 mM MgCl2 and 30% (w/v) sucrose overnight The next day dehydrated tissues were embedded in OCT embedding medium using an isopentane/dry ice bath. Embedded tissues were stored at −70° C. until they could be cryosectioned.
Frozen sections were washed three times for 5 minutes in PBS containing 2 mM MgCl2 at 2-8° C. then 3×30 min in detergent wash (PBS containing 2 mM MgCl2 0.01% Nonidet P40 and 0.1% Sodium Deoxycholate) at 2-8° C. They were then stained overnight in PBS containing 2 mM MgCl2, 0.02% Nonidet P40, 0.1% Sodium Deoxycholate, 5 mM Potassium ferrocyanide, 5 mM Potassium ferricyanide, and 0.1% X-gal at 37° C. The next day, the slides were washed three times for 5 minutes in PBS containing 2 mM MgCl2 followed by three times for 5 minutes in PBS at room temperature. They were equilibrated with 100% ethanol (5 min) and counterstained with Eosin for 1 min at room temperature. Following dehydration and mounting they were evaluated and photographed. • Whole Mount Method
Tissue specimens that had been prefixed in fresh 4% paraformaldehyde were stained immediately using the procedure for “Whole Mount X-Gal Histochemistry of Transgenic Animal Tissues” (see http://www.rodentia.com/wmc/docs/lacZ bible.html), summarised below) was followed, and the post-fixed tissues were transferred to 70% (v/v) ethanol.
Following fixation for one hour in 4% paraformaldehyde, tissues were rinsed three times, for thirty minutes each, with rinse buffer (100 mM sodium phosphate (pH 7.3), 2 mM MgCl2, 0.01% sodium deoxycholate, 0.02% NP-40) at room temperature. […]

[2] = test system: HOZ mice; assay: BUN as a marker of nephrotoxicity in HOZ mice; set-up: BUN: unit not given here
Experimental: (§1) Terminal blood samples were taken by cardiac puncture into lithium/heparin-coated tubes for preparation of plasma. Tissues, as defined in each protocol, were routinely dissected as follows:
(§2) Following removal into tubes suitable for plasma preparation, venous blood samples were mixed on a roller for 10 minutes then cooled on ice. Red blood cells were removed by centrifugation at 2,000 rpm for 10 minutes at 8-10° C. The supernatant (plasma) was transferred to a second tube and stored at −70° C. until required for analysis.
(§3) Plasma samples were analysed for appropriate analytes on a Roche autoanalyser (Cobas Integra 400) according to the manufacturer's instructions. The routine markers measured included: (for liver damage) plasma alanine aminotransferase (ALT), aspartate aminotransferase (AST) and alkaline phosphatase (ALP) and (for kidney damage) plasma creatinine and blood urea nitrogen (BUN).
The increase in BUN was 6-fold at 8 hours and 44-fold after 24 hours.

[3] = test system: HOZ mice; assay: Plasma AST as a marker of hepatotoxicity in HOZ mice
Experimental: as §1, §2, §3
Two plasma enzyme markers, ALT and AST, were used as markers of hepatotoxicity in HOZ mice treated with cadmium chloride or sodium arsenite. […]

[4] = female, 8 mg/kg, after 24 hours

SMILES: [Cl][Cd][Cl] [Cadmium Chloride, cadmium chloride]
- expression of the HOZ gene in kidney ([1]; 8 mg/kg, 8 hours after dosing): detectable expression
- LacZ expression in brain ([1]; HOZ mice, with or without cadmium chloride treatment): no evidence of LacZ expression
- LacZ staining in liver ([1]; HOZ mouse, 10 mg/kg i.p. in saline, 24 hours after dosing): intense blue staining
- LacZ staining in kidney (proximal convoluted tubules) ([1]; HOZ mouse, 10 mg/kg i.p. in saline, 24 hours, versus naive and saline controls): frequency of stained PCTs was much higher
- HOZ gene expression in liver ([1]; either sex, 8 mg/kg i.p., 24 hours): clearly apparent
- LacZ staining in liver ([1]; female, 4 mg/kg i.p., 8 hours): weak LacZ staining
- HOZ gene expression in liver ([1]; female, 2-8 mg/kg i.p., 8 hours): no consistent evidence of HOZ expression
- HOZ gene expression in liver ([1]; female, lower doses (2, 4 mg/kg) i.p., 24 hours): none was evident
- HOZ gene expression in liver ([1]; male, 8 mg/kg i.p., 8 hours): High levels of HOZ gene expression
- HOZ gene expression in liver ([1]; male, lower doses (2, 4 mg/kg) i.p., 8 hours): lower levels of expression
- HOZ gene expression in liver ([1]; male, lower doses (2, 4 mg/kg) i.p., 24 hours): some HOZ expression was also apparent
- BUN ([2]; female, 1 mg/kg, 8 hours): 5.10
- BUN ([2]; female, 1 mg/kg, 24 hours): 4.36
- BUN ([2]; female, 2 mg/kg, 8 hours): 3.33
- BUN ([2]; female, 2 mg/kg, 24 hours): 2.85
- BUN ([2]; female, 4 mg/kg, 8 hours): 4.77
- BUN ([2]; female, 4 mg/kg, 24 hours): 3.66
- nephrotoxicity as measured by BUN ([2]; female, 8 mg/kg): mild nephrotoxicity
- BUN ([2]; female, 8 mg/kg, 8 hours): 22.86
- BUN ([2]; female, 8 mg/kg, 24 hours): 98.16
- increase in BUN [2, 4]: 44 fold
- increase in BUN ([2]; female, 8 mg/kg, at 8 hours): 6 fold
- nephrotoxicity as measured by BUN ([2]; male mice): No nephrotoxicity
- BUN ([2]; male, 1 mg/kg, 8 hours): 4.54
- BUN ([2]; male, 1 mg/kg, 24 hours): 5.27
- BUN ([2]; male, 2 mg/kg, 8 hours): 4.24
- BUN ([2]; male, 2 mg/kg, 24 hours): 5.10
- BUN ([2]; male, 4 mg/kg, 8 hours): 3.87
- BUN ([2]; male, 4 mg/kg, 24 hours): 4.11
- BUN ([2]; male, 8 mg/kg, 8 hours): 3.84
- BUN ([2]; male, 8 mg/kg, 24 hours): 4.85
- AST ([3]; HOZ mouse, 10 mg/kg i.p., 24 hours): 4643.1 U/L
- Plasma AST ([3]; female, 1 mg/kg, 8 hours): 87.6 u/L
- Plasma AST ([3]; female, 1 mg/kg, 24 hours): 87.5 u/L
- Plasma AST ([3]; female, 2 mg/kg, 8 hours): 80.4 u/L
- Plasma AST ([3]; female, 2 mg/kg, 24 hours): 104.7 u/L
- Plasma AST ([3]; female, 4 mg/kg, 8 hours): 108.5 u/L
- Plasma AST ([3]; female, 4 mg/kg, 24 hours): 89.1 u/L
- increase in plasma AST ([3]; female, 4 mg/kg, at either time point (8, 24 hours)): no increase in plasma AST was observed
- Plasma AST ([3]; female, 8 mg/kg, 8 hours): 13425.6 u/L
- Plasma AST ([3]; female, 8 mg/kg, 24 hours): 8097.6 u/L
- increase in plasma AST ([3]; female, 8 mg/kg, after 8 hours): 237 fold
- increase in plasma AST [3, 4]: 97 fold
- Plasma AST ([3]; male, 1 mg/kg, 8 hours): 100.2 u/L
- Plasma AST ([3]; male, 1 mg/kg, 24 hours): 63.1 u/L
- Plasma AST ([3]; male, 2 mg/kg, 8 hours): 66.4 u/L
- Plasma AST ([3]; male, 2 mg/kg, 24 hours): 56.4 u/L
- Plasma AST ([3]; male, 4 mg/kg, 8 hours): 132.3 u/L
- Plasma AST ([3]; male, 4 mg/kg, 24 hours): 123.0 u/L
- Plasma AST ([3]; male, 8 mg/kg, 8 hours): 92.4 u/L
- Plasma AST ([3]; male, 8 mg/kg, 24 hours): 353.8 u/L
- increase in AST ([3]; male, 8 mg/kg, 24 hours after treatment): 3.8 fold
